In patent US10945685B2, “System and method for normalizing standardized uptake values in brain positron emission tomography (PET) images” (New York University, priority 2018, dated 2021):

Columns and labels:
tau [1] = experiment: Tau PET tracer binding, SUVR with cerebellar cortex as reference, AD patients and NL subjects; format: in vivo, human; conditions: mean (SD); for GMSUVR (Cerebral GM tracer retention) / WMSUVR (Cerebral WM tracer retention): all subjects of the tracer (AD and NL)
Procedure: Subjects come from two sources. 18 subjects (9 AD patients, and 9 healthy elderly study participants) underwent ^18F-THK5351 PET scans from the memory clinic of Tohoku University Hospital. ^18F-AV-1451 scans were obtained from the ADNI (Alzheimer's Disease Neuroimaging Initiative) database (adni.loni.usc.edu). 32 Subjects (20 NL and 12 AD) with ^18F-AV-1451 were selected from ADNI, that were matched to the age and MMSE in participants of the THK5351 group.
PET imaging was performed using an Eminence STARGATE PET scanner (Shimadzu, Kyoto, Japan). After intravenous injection of ^18F-THK5351 (185 MBq), dynamic PET images were obtained for 60 min. acquisition matrix is 128×128×79 and voxels size is 2×2×2.6 mm. ^18F-THK5351 was synthesized. MRI was performed on all participants. T1 weighted MR images were obtained using a SIGNA 1.5-Tesla machine (General Electric, Milwaukee, Wis.). In T1-weighted MRI, a 3D volumetric acquisition of a T1-weighted gradient echo sequence produced a gapless series of thin axial sections by using a vascular TOF SPGR sequence (echo time/repetition time, 2.4/50 ms; flip angle, 45°; acquisition matrix, 256×256; 1 excitation; field of view, 22 cm; slice thickness, 2.0 mm).
AV-1451 data were downloaded from ADNI with series description “AV1451 Coreg, Avg, Std Img and Vox Siz, Uniform Resolution”. An intravenous injection of 10 mCi ^18F-AV-1451 (370 MBq) is followed by a saline flush. At approximately 75 minutes following injection, a continuous 30-minute brain scan (6 frames of 5-minute duration) was performed after a CT or transmission scan for attenuation correction. PET imaging was performed using GEMINI TF TOF 16 (Philips Medical Systems), with 6 frames; acquisition matrix 128×128×90; pixel spacing 2×2 mm; slice thickness 2 mm.
Using Free-Surfer (V. 5.1, http://surfer.nmr.mgh.harvard.edu) ROI's were determined for the cerebral gray and white matter, the cerebellar hemisphere gray matter, caudate nuclear, thalamus, ponds and subcortical regions (including frontal, parietal, occipital, medial temporal cortex and lateral temporal lobe). MRI T1 images were coregistered to the mean PET images for each participant by using statistical parametric-mapping software (SPM12; Wellcome Department of Imaging Neuroscience, UCL, London, UK).
Standardized uptake value (SUV) images were obtained by normalizing tissue radioactivity concentration by injected dose and bodyweight. Estimates of tau deposition were determined for THK53151 with the 40-60 min SUV and for AV1451 with for the 80-100 min SUV. Standard SUVR was generated by using cerebellar cortex as reference. To control the variation of SUVR measures in THK5351 and AV1451 PET caused by the off-target binding in reference region, each subject's SUV images were first transferred into standardized SUVP images, using the Peak-alignment method (as described above). In order to compare the regional SUV distribution patterns on group level, the whole brain probability density function (PDFwb) of SUVP were computed for each subject by normalizing the histograms of a subject's SUVP with the total number of intracranial voxels of that subject. Finally, the group average whole brain probability density function (PDFwb) were computed by averaging the individual subjects' PDFwb within 4 compare groups (2 tracers×2 conditions). One important advantage of SUVP over SUVR is that the Peak-alignment method standardized the range of whole brain SUV (marked in FIG. 2) into [−3,3] approximately, regardless of tracer or disease condition, thus allowing universal cutoff for different tracers, while SUVR cutoffs are tracer-dependent (e.g. 1.5 for THK and 1.19 for AV1451). Here, 1.5 is used for SUVP cutoff, representing 1.5 times std from whole brain mode. The positive binding percentage: PBP=(number of positive bring voxels)/(total number of voxels), are computed for both SUVP and SUVR in different brain tissues. […]

tau [2] = experiment: AD-NL classification from tau PET: ROC AUC and AD-NL ratio of PBP; format: in vivo, human; conditions: for AD-NL ratio R = (average PBP of AD group)/(average PBP of NL group), SUVP / AD-NL ratio R = (average PBP of AD group)/(average PBP of NL group), SUVR: Table 5, region not stated; for AD-NL ratio (R), SUVP PBP / AD-NL ratio (R), SUVR PBP: temporal lobe
Procedure: In another embodiment, the average PBP of a particular diseased (or abnormal) group (e.g., an AD group) for a particular ROI may be compared to the PBP of a group of normal control (NL) subjects. For example, a ratio (R) of PBP may be obtained by: R=(average PBP of diseased or abnormal group)/(average PBP of NL group)
Standardized uptake value (SUV) images were obtained by normalizing tissue radioactivity concentration by injected dose and bodyweight. Estimates of tau deposition were determined for THK53151 with the 40-60 min SUV and for AV1451 with for the 80-100 min SUV. Standard SUVR was generated by using cerebellar cortex as reference. To control the variation of SUVR measures in THK5351 and AV1451 PET caused by the off-target binding in reference region, each subject's SUV images were first transferred into standardized SUVP images, using the Peak-alignment method (as described above). In order to compare the regional SUV distribution patterns on group level, the whole brain probability density function (PDFwb) of SUVP were computed for each subject by normalizing the histograms of a subject's SUVP with the total number of intracranial voxels of that subject. Finally, the group average whole brain probability density function (PDFwb) were computed by averaging the individual subjects' PDFwb within 4 compare groups (2 tracers×2 conditions). One important advantage of SUVP over SUVR is that the Peak-alignment method standardized the range of whole brain SUV (marked in FIG. 2) into [−3,3] approximately, regardless of tracer or disease condition, thus allowing universal cutoff for different tracers, while SUVR cutoffs are tracer-dependent (e.g. 1.5 for THK and 1.19 for AV1451). Here, 1.5 is used for SUVP cutoff, representing 1.5 times std from whole brain mode. The positive binding percentage: PBP=(number of positive bring voxels)/(total number of voxels), are computed for both SUVP and SUVR in different brain tissues.
To compare the classification accuracy of AD and NL using mean SUVR and PBP (SUVR and SUVP), the ROC curve was computed and the area under curve (AUC) was computed.
We also computed the diagnostic accuracy in terms of AUC, as specified in Method section. […] The AD-NL ratio obtained using (average PBP of AD group)/(average PBP of NL group).

Row | SMILES | SUVR, Basal ganglia (tau [1]; AD patients) | SUVR, Cerebral GM (tau [1]; AD patients) | SUVR, Cerebral WM (tau [1]; AD patients) | SUVR, Frontal cortex (tau [1]; AD patients) | SUVR, Occipital cortex (tau [1]; AD patients) | SUVR, Parietal cortex (tau [1]; AD patients) | SUVR, Temporal cortex (tau [1]; AD patients) | SUVR, Basal ganglia (tau [1]; NL subjects) | SUVR, Cerebral GM (tau [1]; NL subjects) | SUVR, Cerebral WM (tau [1]; NL subjects) | SUVR, Frontal cortex (tau [1]; NL subjects) | SUVR, Occipital cortex (tau [1]; NL subjects) | SUVR, Parietal cortex (tau [1]; NL subjects) | SUVR, Temporal cortex (tau [1]; NL subjects) | GMSUVR (Cerebral GM tracer retention) (tau [1]) | WMSUVR (Cerebral WM tracer retention) (tau [1]) | AD-NL ratio R = (average PBP of AD group)/(average PBP of NL group), SUVP (tau [2]) | AD-NL ratio R = (average PBP of AD group)/(average PBP of NL group), SUVR (tau [2]) | AD-NL ratio (R), SUVP PBP (tau [2]) | AD-NL ratio (R), SUVR PBP (tau [2])
1 | CNc1ccc(-c2ccc3cc(OC[C@H](O)CF)ccc3n2)cn1 [THK5351] | 2.62(.26)^ | 1.55(.16)^+ | 1.78(.14)^+ | 1.38(.18) | 1.42(.16)^+ | 1.46(.12) | 1.88(.22)*^+ | 2.64(.31) | 1.39(.20) | 1.56(.20) | 1.32(.20) | 1.22(.13) | 1.30(.24) | 1.57(.21) | 1.47(0.19) | 1.67(0.20) | 3.1248 | 1.2747 | 2.39 | 1.25
2 | [18F]c1ccc(-c2ccc3c(c2)[nH]c2ccncc23)cn1 [AV-1451] | 1.30(.10) | 1.24(.25)^+ | 1.27(.18) | 1.18(.23) | 1.17(.13) | 1.25(.30) | 1.41(.35)*^+ | 1.30(.09) | 1.09(.09) | 1.18(.09) | 1.06(.07) | 1.09(.09) | 1.07(.10) | 1.18(.16) | 1.15(0.18) | 1.21(0.13) | 4.4004 | 1.3258 | 3.69 | 1.3
